From patent publication US20200046800A1, “BIOCIDAL AGENT” ("VERTA RESEARCH-PRODUCTION COMPANY" LTD, priority 2017, published 2020)

Tests used:
[1] = test system: type 2 herpes simplex virus, strain G (ATCC VR-734); experiment: Lethal herpes infection in mice by vaginal infection, protective effect of gels; type: in vivo
Text: Eight groups of animals, containing 15 subjects each, were formed to conduct the experiment.
Groups 1-6: infected with type 2 herpes simplex virus and administered gels I-VI (experimental groups 1-6).
Group 8: infected with type 2 herpes simplex virus and not administered any pharmaceutical preparations (virus control).
Type 2 herpes simplex virus, strain G (ATCC VR-734, USA), was used in the experiment. The virus was cultivated in the T98G cell culture (human brain glioblastoma), then adapted to mice by two consecutive intracerebral passages. To prepare the final infective material, the animals were intracerebrally infected with brain tissue homogenate from the second passage; on the 4th day post infection, the animals were euthanized, their brain was extracted, homogenized, used to infect Vero cells, and incubated for 48 hours at 37° C. under 5% CO2 using the culture fluid, in which the infectious titer of the virus was previously determined, as the infective material.
The murine vaginal epithelium was injured with a scarifier for vaginal smears, after which the animals were infected with 30 μl of the virus at a 10^6 TCID50 dose. The examined gels were administered to mice in […] per the following regimen: 0.05 ml once a day 1, 2, 3, 4, and 5 days post infection.
The animals were followed for 18 days; their mortality was recorded daily. Cessation of mortality was defined by the absence of mice with signs of herpetic vaginitis (vaginal discharge) and complications thereof (posterior limb paresis). Based on the mortality data for each group, the mortality rate (Mr, ratio of the fallen animals at the time of control to the total number of infected animals in the group), protective index (IP, ratio of the difference in the percentage of mortality in the control and experimental groups to the percentage of mortality in the control group), and average life span of the animals (ALS) per each day of the experiment were calculated.
The protective effect of the peptide-containing gels was assessed by the reduction in the specific mortality and increase in the life span of the animals compared to the control group that wasn't treated.

[2] = guinea pigs, HPV-2; cited from earlier work
[3] = test system: HPV-2; details: guinea pigs; cited from earlier work
[4] = test system: human herpes simplex virus type 2 (HPV-2); details: male rabbits, local application; cited from earlier work
[5] = n = 15, vaginal HSV-2 10^6 TCID50, gel 0.05 ml once a day days 1-5, followed 18 days
[6] = n = 15, vaginal HSV-2, followed 18 days

Compound	Number of dead animals [1, 5]	Number of survived animals [1, 5]	ALS (average life span) [1, 6]	Mortality [1, 6] [%]	Increase in ALS ([1]; versus virus control, n = 15)	Discharge of the virus from the lesions [2]	Disease duration [3]	Length of the primary genital herpes outbreak [4]	Viral load on the body [4]
Nc1nc2c(ncn2COCCO)c(=O)[nH]1 [Acyclovir]	4	11	13.9 24 hrs.	26.7	2.6				
NH2-His-Gly-Val-Ser-Gly-His-Gly-Gln-His-Gly-Val-His-Gly-COOH (H-HGVSGHGQHGVHG-OH) [Peptide 1]						statistically significant reduction	statistically significant reduction	significantly shortened	reduced
